Measurements published in patent US6750008B1, “Methods and compositions for inhibition of membrane fusion-associated events, including HIV transmission” (priority 1999, dated 2004).

Experiments:
[1] = tested on: HIV-1LAI virus; test: Cell fusion assay (HIV-1 induced syncytia formation); assay type: cell-based
From the text: The results of several such experiments are presented herein.

[2] = tested on: HIV-2; test: Fusion inhibition assay, HIV-2 mediated syncytia formation; assay type: cell-based; details: FIG. 5
Protocol: Approximately 7×10^4 Molt cells were incubated with 1×10^4 CEM cells chronically infected with the HIV-1LAI virus in 96-well plates (one-half area cluster plates; Costar, Cambridge, Mass.) in a final volume of 100 μl culture medium as previously described (Matthews, T. J. et al., 1987, Proc. Natl. Acad. Sci. USA 84: 5424-5428). Peptide inhibitors were added in a volume of 10 μl and the cell mixtures were incubated for 24 hr. at 37° C. At that time, multinucleated giant cells were estimated by microscopic examination at a 40× magnification which allowed visualization of the entire well in a single field.

[3] = tested on: HIV-1LAI virus
Protocol: (§1) Synthetic peptides were incubated at 37° C. with either 247 TCID50 (for experiment depicted in FIG. 2), or 62 TCID50 (for experiment depicted in FIG. 3) units of HIV-1LAI virus or 25 TCID50 units of HIV-2NIHZ and CEM CD4^+ cells at peptide concentrations of 0, 0.04, 0.4, 4.0, and 40 μg/ml for 7 days. The resulting reverse transcriptase (RT) activity in counts per minute was determined using the assay described, below, in Section 6.1.5. See Reed, L. J. et al., 1938, Am. J. Hyg. 27: 493-497 for an explanation of TCID50 calculations.
(§2) The micro-reverse transcriptase (RT) assay was adapted from Goff et al. (Goff, S. et al., 1981, J. Virol. 38:239-248) and Willey et al. (Willey, R. et al., 1988, J. Virol. 62:139-147). Supernatants from virus/cell cultures are adjusted to 1% Triton-X100. A 10 μl sample of supernatant was added to 50 μl of RT cocktail in a 96-well U-bottom microtitre plate and the samples incubated at 37° C. for 90 min. The RT cocktail contained 75 mM KCl, 2 mM dithiothreitol, 5 mM MgCl2, 5 μg/ml poly A (Pharmacia, cat. No. 27-4110-01), 0.25 units/ml oligo dT (Pharmacia, cat. No. 27-7858-01), 0.05% NP40, 50 mM Tris-HCl, pH 7.8, 0.5 μM non-radioactive dTTP, and 10 μCi/ml ^32P-dTTP (Amersham, cat. No. PB.10167).
After the incubation period, 40 μl of reaction mixture was applied to a Schleicher and Schuell (S+S) NA45 membrane (or DE81 paper) saturated in 2×SSC buffer (0.3M NaCl and 0.003M sodium citrate) held in a S+S Minifold over one sheet of GB003 (S+S) filter paper, with partial vacuum applied. Each well of the minifold was washed four times with 200 μl 2×SSC, under full vacuum. The membrane was removed from the minifold and washed 2 more times in a pyrex dish with an excess of 2×SSC. Finally, the membrane was drained on absorbent paper, placed on Whatman #3 paper, covered with Saran wrap, and exposed to film overnight at −70° C.
DP178 (SEQ ID:1) was next tested for its ability to block CD-4^+ CEM cell infection by cell free HIV-1 virus. […]

[4] = tested on: HIV-2NIHZ; test: Cell free virus infection assay (RT production); assay type: cell-based; details: 25 TCID50 HIV-2NIHZ, CEM cells, 7 days
Protocol: as §1
as §2, with “PB.10167). […]” for “PB.10167).”

[5] = tested on: HIV-1IIIB chronically infected CEM cells; assay type: cell-based; details: 10 nM
Protocol: Cell fusion assays were performed as previously described (Matthews et al., 1987, Proc. Natl. Acad. Sci. USA 84: […]). CEM cells (7×10^4) were incubated with HIV-1IIIB chronically infected CEM cells (10^4) in 96-well flat-bottomed half-area plates (Costar) in 100 μl culture medium. Peptide and fusion proteins at various concentrations in 10 μl culture medium were incubated with the cell mixtures at 37° C. for 24 hours. Multinucleated syncytia were estimated with microscopic examination.
No peptide or fusion protein was added in the control samples.

[6] = tested on: HIV-1IIIB; assay type: cell-based
[7] = tested on: Fab-d; test: ELISA analysis of DP178 binding to the leucine zipper motif of gp41 (Fab-d ELISA); design: species or system human; details: reagent alone
Protocol: The amino acid sequence of DP178 used is: […]. […] Each well was washed three times with distilled water then blocked with 3% bovine serum albumin (BSA) for 2 hours. After blocking, peptides with 0.5% BSA in TBST (40 mM Tris-HCl pH7.5, 150 mM NaCl, 0.05% Tween 20) were added to the ELISA plates and incubated at room temperature for 1 hour. After washing three times with TBST, Fab-d was added at a concentration of 10 ng/ml with 0.5% BSA in TBST. The plates were washed three times with TBST after incubation at room temperature for 1 hour. Horse radish peroxidase (HRP) conjugated goat antihuman Fab antiserum at a 2000 fold dilution in TBST with 0.5% BSA was added to each well and incubated at room temperature for 45 minutes. The plates were then washed four times with TBST. The peroxidase substrate o-phenylene diamine (2.5 mg/ml) and 0.15% H2O2 were added to develop the color. The reaction was stopped with an equal volume of 4.5 N H2SO4 after incubation at room temperature for 10 minutes. The optical density of the stopped reaction mixture was measured with a micro plate reader (Molecular Design) at 490 nm.

[8] = tested on: HIV-1/IIIb; test: Anti-HIV assays of DP107/DP178 truncations and mutations; assay type: cell-based; details: worded 'results shown are for 4 ng/ml'
From the text: Anti-HIV assays: The antiviral assays performed were as those described, above, in Section 6.1. Assays utilized HIV-1/IIIb and/or HIV-2 NIHZ isolates. Purified peptides were used, unless otherwise noted in FIGS. 49A-C.

Substance: Enfuvirtide
- selectivity as inhibitor of HIV-1-mediated over HIV-2 mediated cell fusion [1]: 4 log
- peptide concentration blocking HIV-1-mediated syncytia formation ([1]; FIG. 5, HIV-1 vs HIV-2): below 1 ng/ml
- complete protection against syncytium formation down to lowest concentration tested ([1]; HIV-1LAI): ≤ 12.5 ng/mL
- lowest effective inhibitory concentration, complete block of virus induced syncytia formation ([1]; Molt cells + chronically HIV-1 infected CEM cells, 24 hr): 1 to 10 ng/mL
- complete protection against syncytium formation down to lowest concentration used ([1]; all other HIV-1 viruses (HIV-1MN, HIV-1RF, HIV-1SF2)): ≤ 100 ng/mL
- concentration failing to block HIV-2 mediated syncytia formation [2]: > 10 µg/mL
- IC50, inhibition of RT production ([3]; 62 TCID50 HIV-1LAI, CEM cells, 7 days): about 31 ng/ml
- potency as HIV-1 inhibitor relative to HIV-2 inhibitor ([3]; cell free virus infection): two logs more potent
- IC50 for HIV-2NIHZ [4]: much higher
- syncytia in HIV-1 induced cell-cell fusion [5]: not observable syncytia
- IC90 [6]: 80 nM
- binding of Fab-d [7]: failed to bind
- anti-HIV antiviral data, results shown (FIGS. 49A-C) [8]: 4 ng/mL
